Tests used:
[1] = target: Beta-1 adrenergic receptor (Homo sapiens, UniProt P08588); format: functional, cell-based
[2] = target: T1, Muscarinic acetylcholine receptor M5 (Homo sapiens, UniProt P08912)
T1 sequence (P08912 whole entry): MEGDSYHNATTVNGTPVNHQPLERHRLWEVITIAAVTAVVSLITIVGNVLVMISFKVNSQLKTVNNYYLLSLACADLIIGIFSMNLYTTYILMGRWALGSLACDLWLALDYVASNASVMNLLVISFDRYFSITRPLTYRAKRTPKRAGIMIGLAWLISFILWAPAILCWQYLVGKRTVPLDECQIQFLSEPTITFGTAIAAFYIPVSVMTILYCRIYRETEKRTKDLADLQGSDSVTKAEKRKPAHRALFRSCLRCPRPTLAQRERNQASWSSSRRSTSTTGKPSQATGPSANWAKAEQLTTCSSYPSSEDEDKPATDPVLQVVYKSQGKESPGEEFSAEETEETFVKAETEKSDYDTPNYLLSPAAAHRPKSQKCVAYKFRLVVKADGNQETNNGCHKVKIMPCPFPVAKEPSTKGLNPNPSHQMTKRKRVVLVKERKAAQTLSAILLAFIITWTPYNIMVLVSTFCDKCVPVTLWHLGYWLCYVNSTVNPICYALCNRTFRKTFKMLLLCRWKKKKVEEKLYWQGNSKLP

[3] = target: T2, Peroxisome proliferator-activated receptor gamma (Homo sapiens, UniProt P37231); format: functional
T2 sequence (P37231 whole entry): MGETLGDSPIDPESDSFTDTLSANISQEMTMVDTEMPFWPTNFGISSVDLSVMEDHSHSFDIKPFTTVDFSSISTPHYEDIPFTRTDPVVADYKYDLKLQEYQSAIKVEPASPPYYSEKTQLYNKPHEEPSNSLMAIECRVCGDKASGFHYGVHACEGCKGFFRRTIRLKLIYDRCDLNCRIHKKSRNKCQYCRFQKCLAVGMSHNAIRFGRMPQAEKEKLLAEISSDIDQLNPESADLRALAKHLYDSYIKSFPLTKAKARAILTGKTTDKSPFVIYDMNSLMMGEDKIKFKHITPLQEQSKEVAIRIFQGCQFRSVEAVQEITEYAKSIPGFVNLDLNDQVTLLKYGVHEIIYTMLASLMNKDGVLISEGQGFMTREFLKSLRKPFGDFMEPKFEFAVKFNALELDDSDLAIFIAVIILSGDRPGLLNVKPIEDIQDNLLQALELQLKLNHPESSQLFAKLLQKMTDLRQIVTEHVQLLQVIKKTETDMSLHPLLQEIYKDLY

[4] = target: T2, Peroxisome proliferator-activated receptor gamma; format: functional; remark: listed apart in the source
[5] = target: Gamma-aminobutyric acid type B receptor subunit 1 (Homo sapiens, UniProt Q9UBS5)
Gamma-aminobutyric acid type B receptor subunit 1, sequence (Q9UBS5 whole entry): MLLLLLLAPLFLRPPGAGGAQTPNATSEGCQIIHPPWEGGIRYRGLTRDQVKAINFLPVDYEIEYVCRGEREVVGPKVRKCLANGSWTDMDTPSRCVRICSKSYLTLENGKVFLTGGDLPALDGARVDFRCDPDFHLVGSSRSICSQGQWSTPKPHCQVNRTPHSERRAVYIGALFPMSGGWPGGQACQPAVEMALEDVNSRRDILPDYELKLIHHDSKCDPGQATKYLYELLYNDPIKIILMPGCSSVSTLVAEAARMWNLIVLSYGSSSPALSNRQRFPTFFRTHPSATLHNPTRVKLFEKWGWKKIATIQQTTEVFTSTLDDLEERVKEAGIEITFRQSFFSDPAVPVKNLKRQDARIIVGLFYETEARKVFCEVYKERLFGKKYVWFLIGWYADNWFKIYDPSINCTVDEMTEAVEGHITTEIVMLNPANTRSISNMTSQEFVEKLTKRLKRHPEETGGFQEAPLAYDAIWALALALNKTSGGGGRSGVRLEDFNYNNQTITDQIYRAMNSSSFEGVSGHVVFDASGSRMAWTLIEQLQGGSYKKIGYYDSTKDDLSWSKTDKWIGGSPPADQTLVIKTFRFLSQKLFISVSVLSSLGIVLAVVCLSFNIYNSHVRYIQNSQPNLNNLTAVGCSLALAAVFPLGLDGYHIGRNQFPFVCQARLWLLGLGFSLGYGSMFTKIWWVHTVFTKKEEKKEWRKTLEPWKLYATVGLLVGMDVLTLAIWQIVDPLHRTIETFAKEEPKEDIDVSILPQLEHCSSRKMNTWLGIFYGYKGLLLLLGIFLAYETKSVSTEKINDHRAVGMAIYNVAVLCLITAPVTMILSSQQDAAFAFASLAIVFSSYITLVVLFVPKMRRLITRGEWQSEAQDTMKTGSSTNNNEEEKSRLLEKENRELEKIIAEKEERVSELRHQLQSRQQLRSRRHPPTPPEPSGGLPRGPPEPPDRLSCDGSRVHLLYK

[6] = target: Estrogen receptor beta (Homo sapiens, UniProt Q92731)
Estrogen receptor beta, sequence (Q92731 whole entry): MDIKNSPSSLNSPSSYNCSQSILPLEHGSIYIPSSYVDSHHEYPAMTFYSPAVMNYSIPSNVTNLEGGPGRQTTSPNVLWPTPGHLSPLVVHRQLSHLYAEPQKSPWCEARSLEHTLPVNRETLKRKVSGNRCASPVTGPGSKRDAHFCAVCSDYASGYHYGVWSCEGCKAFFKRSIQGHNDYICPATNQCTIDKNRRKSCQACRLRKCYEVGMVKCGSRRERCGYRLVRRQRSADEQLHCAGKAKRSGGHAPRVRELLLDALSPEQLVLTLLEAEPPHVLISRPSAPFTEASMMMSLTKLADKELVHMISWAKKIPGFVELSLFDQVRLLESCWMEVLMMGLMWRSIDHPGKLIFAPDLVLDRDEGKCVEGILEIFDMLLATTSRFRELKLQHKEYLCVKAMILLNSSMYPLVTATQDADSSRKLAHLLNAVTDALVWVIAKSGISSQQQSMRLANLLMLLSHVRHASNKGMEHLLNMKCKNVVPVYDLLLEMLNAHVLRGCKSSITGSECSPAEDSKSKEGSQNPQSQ

[7] = target: Cannabinoid receptor 1 (Homo sapiens, UniProt P21554); format: functional
Cannabinoid receptor 1, sequence (P21554 whole entry): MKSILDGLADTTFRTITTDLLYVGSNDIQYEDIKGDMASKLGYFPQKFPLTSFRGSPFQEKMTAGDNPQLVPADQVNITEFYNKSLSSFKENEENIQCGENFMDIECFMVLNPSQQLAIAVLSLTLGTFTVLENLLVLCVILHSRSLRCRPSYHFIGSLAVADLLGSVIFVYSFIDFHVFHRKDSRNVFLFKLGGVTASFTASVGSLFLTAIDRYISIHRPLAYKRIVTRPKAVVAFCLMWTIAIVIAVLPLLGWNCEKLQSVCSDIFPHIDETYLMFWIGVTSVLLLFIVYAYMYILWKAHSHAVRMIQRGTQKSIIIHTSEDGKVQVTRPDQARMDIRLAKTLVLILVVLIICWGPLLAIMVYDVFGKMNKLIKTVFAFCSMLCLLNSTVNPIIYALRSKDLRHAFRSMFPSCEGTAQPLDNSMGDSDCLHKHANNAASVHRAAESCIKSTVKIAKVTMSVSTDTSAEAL

[8] = target: D(1B) dopamine receptor (Homo sapiens, UniProt P21918)
D(1B) dopamine receptor, sequence (P21918 whole entry): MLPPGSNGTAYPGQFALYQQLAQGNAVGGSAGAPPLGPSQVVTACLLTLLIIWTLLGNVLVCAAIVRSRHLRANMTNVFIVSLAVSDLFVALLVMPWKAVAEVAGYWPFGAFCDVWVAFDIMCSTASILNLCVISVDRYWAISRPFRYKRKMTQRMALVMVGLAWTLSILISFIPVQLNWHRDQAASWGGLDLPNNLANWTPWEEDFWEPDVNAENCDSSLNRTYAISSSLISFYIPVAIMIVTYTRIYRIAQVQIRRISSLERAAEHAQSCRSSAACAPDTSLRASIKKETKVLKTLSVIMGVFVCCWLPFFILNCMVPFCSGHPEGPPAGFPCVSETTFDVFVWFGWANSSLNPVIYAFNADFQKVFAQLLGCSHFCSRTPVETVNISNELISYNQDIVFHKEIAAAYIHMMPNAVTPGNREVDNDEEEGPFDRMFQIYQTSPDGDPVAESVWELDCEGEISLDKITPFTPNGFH

[9] = target: 5-hydroxytryptamine receptor 5A (Homo sapiens, UniProt P47898)
5-hydroxytryptamine receptor 5A, sequence (P47898 whole entry): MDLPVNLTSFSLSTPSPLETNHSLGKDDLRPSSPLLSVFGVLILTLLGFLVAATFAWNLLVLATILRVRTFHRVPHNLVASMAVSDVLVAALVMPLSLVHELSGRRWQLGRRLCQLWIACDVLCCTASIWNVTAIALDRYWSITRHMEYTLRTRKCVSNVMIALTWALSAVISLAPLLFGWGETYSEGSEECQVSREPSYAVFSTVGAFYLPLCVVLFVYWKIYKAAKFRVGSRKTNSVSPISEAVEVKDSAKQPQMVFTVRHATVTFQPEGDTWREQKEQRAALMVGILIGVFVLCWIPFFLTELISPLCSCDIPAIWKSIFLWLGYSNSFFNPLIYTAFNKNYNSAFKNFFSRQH

[10] = target: 5-hydroxytryptamine receptor 6 (Homo sapiens, UniProt P50406)
5-hydroxytryptamine receptor 6, sequence (P50406 whole entry): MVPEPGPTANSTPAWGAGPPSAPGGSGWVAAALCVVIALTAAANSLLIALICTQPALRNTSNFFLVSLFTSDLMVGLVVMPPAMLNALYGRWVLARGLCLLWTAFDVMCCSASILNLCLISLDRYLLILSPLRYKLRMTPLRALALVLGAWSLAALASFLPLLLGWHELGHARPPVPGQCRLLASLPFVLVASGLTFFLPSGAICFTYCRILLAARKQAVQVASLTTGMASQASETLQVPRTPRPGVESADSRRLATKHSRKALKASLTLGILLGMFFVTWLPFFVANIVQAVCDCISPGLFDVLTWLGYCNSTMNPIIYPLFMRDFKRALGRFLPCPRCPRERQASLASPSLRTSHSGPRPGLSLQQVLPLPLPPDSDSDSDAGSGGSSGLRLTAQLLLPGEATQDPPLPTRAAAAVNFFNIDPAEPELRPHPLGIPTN

[11] = target: 5-hydroxytryptamine receptor 7 (Homo sapiens, UniProt P34969)
[12] = target: Rod cGMP-specific 3',5'-cyclic phosphodiesterase subunit alpha (Homo sapiens, UniProt P16499); format: functional
Rod cGMP-specific 3',5'-cyclic phosphodiesterase subunit alpha, sequence (P16499 whole entry): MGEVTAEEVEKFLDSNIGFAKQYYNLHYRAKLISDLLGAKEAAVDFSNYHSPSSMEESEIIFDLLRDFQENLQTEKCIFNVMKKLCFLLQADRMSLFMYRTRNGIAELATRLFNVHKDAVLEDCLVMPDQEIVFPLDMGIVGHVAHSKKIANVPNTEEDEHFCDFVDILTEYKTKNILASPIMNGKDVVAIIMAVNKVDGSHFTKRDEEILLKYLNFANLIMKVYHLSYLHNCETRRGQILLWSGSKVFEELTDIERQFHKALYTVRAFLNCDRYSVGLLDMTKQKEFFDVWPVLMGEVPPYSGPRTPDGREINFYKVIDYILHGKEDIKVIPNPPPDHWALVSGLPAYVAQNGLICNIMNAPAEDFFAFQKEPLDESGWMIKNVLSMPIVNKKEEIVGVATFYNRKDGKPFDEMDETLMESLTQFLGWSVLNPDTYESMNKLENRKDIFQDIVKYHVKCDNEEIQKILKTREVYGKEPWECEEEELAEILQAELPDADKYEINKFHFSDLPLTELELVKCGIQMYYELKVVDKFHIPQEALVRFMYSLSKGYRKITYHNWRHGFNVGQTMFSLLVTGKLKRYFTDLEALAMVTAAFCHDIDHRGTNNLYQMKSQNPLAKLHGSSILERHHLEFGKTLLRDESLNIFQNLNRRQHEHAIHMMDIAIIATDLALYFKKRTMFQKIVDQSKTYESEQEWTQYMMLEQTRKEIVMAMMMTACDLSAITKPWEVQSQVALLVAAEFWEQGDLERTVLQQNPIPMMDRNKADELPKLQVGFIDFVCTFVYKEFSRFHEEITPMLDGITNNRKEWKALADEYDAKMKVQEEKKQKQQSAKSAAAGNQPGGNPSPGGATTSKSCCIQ

[13] = target: T3, Substance-K receptor (Homo sapiens, UniProt P21452)
T3 sequence (P21452 whole entry): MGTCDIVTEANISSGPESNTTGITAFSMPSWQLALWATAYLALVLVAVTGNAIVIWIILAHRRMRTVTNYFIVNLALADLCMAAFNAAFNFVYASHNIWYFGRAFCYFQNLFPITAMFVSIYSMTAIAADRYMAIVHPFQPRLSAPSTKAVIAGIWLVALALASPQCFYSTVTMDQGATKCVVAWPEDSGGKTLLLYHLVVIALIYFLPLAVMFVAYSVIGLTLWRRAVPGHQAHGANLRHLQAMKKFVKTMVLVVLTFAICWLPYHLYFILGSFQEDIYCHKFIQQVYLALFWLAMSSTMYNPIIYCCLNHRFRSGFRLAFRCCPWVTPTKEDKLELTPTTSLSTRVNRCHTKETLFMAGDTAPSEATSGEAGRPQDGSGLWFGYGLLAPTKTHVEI

[14] = target: T4, Alpha-1A adrenergic receptor (Homo sapiens, UniProt P35348)
T4 sequence (P35348 whole entry): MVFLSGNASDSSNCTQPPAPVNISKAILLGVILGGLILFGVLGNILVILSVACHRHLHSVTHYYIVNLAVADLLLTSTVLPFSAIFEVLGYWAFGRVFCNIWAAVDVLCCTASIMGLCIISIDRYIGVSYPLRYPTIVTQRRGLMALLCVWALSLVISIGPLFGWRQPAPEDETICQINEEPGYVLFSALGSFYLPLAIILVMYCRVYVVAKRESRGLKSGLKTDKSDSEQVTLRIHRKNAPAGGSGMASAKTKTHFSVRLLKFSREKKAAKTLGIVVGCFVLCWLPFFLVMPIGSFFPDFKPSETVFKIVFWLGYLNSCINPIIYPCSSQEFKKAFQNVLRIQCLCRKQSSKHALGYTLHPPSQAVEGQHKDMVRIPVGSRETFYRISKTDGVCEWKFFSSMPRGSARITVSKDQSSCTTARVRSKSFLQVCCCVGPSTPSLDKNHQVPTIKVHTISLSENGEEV
Note: assay procedure not described here.

Beta-1 adrenergic receptor, sequence (P08588 whole entry): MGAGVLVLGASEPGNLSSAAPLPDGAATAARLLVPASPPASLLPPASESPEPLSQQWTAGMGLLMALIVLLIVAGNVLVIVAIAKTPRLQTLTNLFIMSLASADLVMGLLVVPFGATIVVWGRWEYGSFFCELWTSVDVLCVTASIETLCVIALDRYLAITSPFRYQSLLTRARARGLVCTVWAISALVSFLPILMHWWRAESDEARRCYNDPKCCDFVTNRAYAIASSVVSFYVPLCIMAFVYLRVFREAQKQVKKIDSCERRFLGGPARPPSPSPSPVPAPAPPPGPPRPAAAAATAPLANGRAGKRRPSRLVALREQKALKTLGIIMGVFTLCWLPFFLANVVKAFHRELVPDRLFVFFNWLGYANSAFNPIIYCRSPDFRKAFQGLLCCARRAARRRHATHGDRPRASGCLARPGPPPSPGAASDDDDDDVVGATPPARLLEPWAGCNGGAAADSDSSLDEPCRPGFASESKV

In the case of `CC(C)N(CCCCOCC(=O)O)c1cnc(-c2ccccc2)c(-c2ccccc2)n1`, the AC50 [1] is reported as over 30 µM.
Work on `C[N+]12CCC(CC1)C(OC(=O)C(O)(c1ccccc1)c1ccccc1)C2` (configuration not stated) yielded an AC50 [2] of 0.0068 µM.
Work on `O=C(CCCN1CCC(O)(c2ccc(Br)cc2)CC1)c1ccc(F)cc1` [BROMPERIDOL] yielded an AC50 [1] of over 30 µM.
`CO/N=C(\C(=O)N[C@@H]1C(=O)N2C(C(=O)O)=CCS[C@H]12)c1csc(N)n1` [CEFTIZOXIME] gave an AC50 [3] of over 30 µM and an AC50 [4] of over 30 µM.
`CO/N=C(\C(=O)N[C@@H]1C(=O)N2C(C(=O)O)=C(CSc3nc(=O)c(=O)[nH]n3C)CS[C@H]12)c1csc(N)n1` [CEFTRIAXONE] was tested, and the AC50 [3] was over 30 µM and the AC50 [4] was 1.4 µM.
Work on `COc1cc(N)c(Cl)cc1C(=O)NC1CCN(CCCOc2ccc(F)cc2)CC1OC` (configuration not stated) [CISAPRIDE] yielded an AC50 [5] of over 10 µM.
`CCOC(=O)C(C)(C)Oc1ccc(Cl)cc1` [CLOFIBRATE] was tested, and the AC50 [6] was over 30 µM, the AC50 [3] was over 30 µM and the AC50 [4] was over 30 µM.
In the case of `CCCCOc1ccc(C(=O)CCN2CCCCC2)cc1` [DYCLONINE], the AC50 [2] is reported as 15.8 µM, the AC50 [7] is reported as over 10 µM and the AC50 [8] is reported as over 10 µM. It also gave an AC50 [6] of over 30 µM, an AC50 [5] of over 10 µM and an AC50 [9] of over 10 µM. It also gave an AC50 [10] of over 10 µM, an AC50 [11] of over 10 µM and an AC50 [12] of over 10 µM. For the same compound, the AC50 [13] was over 10 µM and the AC50 [14] was over 10 µM.
Compound `CC(C)NC[C@H](O)COc1ccc(CC(N)=O)cc1` [ESATENOLOL] has an AC50 [7] of over 10 µM, an AC50 [10] of over 10 µM and an AC50 [11] of over 10 µM. It also gave an AC50 [14] of over 10 µM.
In the case of `NNC(=O)c1ccncc1` [ISONIAZID], the AC50 [7] is reported as over 10 µM, the AC50 [6] is reported as over 30 µM and the AC50 [10] is reported as over 10 µM. For the same compound, the AC50 [11] was over 10 µM and the AC50 [14] was over 10 µM.
Work on `O=C1Nc2ccc(Cl)cc2C(c2ccccc2Cl)=NC1O` (configuration not stated) [LORAZEPAM] yielded an AC50 [6] of over 30 µM and an AC50 [14] of over 10 µM.
In the case of `CN1CCN=C(c2ccccc2)c2cc(Cl)ccc21` [MEDAZEPAM], the AC50 [1] is reported as over 30 µM.
`Cc1ccnc2c1NC(=O)c1cccnc1N2C1CC1` [NEVIRAPINE] gave an AC50 [2] of over 10 µM, an AC50 [7] of over 10 µM and an AC50 [8] of over 10 µM. For the same compound, the AC50 [6] was over 30 µM, the AC50 [9] was over 10 µM and the AC50 [10] was over 10 µM. For the same compound, the AC50 [11] was over 10 µM, the AC50 [12] was over 10 µM and the AC50 [13] was over 10 µM. The AC50 [14] was over 10 µM.
Work on `Fc1ccc([C@@H]2CCNC[C@H]2COc2ccc3c(c2)OCO3)cc1` [PAROXETINE] yielded an AC50 [7] of over 10 µM, an AC50 [8] of over 10 µM and an AC50 [5] of over 10 µM. It also gave an AC50 [9] of 5.63 µM, an AC50 [11] of over 10 µM and an AC50 [12] of over 10 µM. The AC50 [13] was over 10 µM.
`CCC(=O)O[C@](Cc1ccccc1)(c1ccccc1)[C@H](C)CN(C)C` [PROPOXYPHENE] showed an AC50 [6] of over 30 µM and an AC50 [14] of over 10 µM.
In the case of `O=c1c(O)c(-c2ccc(O)c(O)c2)oc2cc(O)cc(O)c12` [QUERCETIN], the AC50 [6] is reported as over 30 µM.
`C=CCN1CCc2nc(N)sc2CC1` [TALIPEXOLE] showed an AC50 [1] of over 30 µM.
Compound `CCOC(=O)[C@@H](N)Cc1ccc(-c2cc(O[C@H](c3ccc(Cl)cc3-n3ccc(C)n3)C(F)(F)F)nc(N)n2)cc1` [TELOTRISTAT ETHYL] has an AC50 [3] of over 30 µM and an AC50 [4] of over 30 µM.
